Experimental data as given in ChEMBL document CHEMBL1150785 (Antimicrob Agents Chemother, 2007).

System: Mycobacterium tuberculosis
Experiment: Effect on mutation frequency of Mycobacterium tuberculosis H37Ra assessed as mutation prevention concentration
Type: functional

SMILES: NNC(=O)c1ccncc1 [ISONIAZID]
- Activity: 50 mg/L
